Our source for the pest or weed control values is patent US10206394B2, “Herbicidal compounds” (Syngenta Participations AG, priority 2014, dated 2019).

Holding throughout (experiment): Glasshouse assay for herbicidal activity (pre- and post-emergence), percentage phytotoxicity
Common to all, as to format: in vivo

Experiment [1] deals with Echinochloa crus-galli (ECHCG). Particulars: Echinochloa crus-galli. A digest of the protocol: (§1)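 Visual phytotoxicity score, 0% = undamaged to 100% = total kill, read 20 days after treatment for PRE and 15 days for POST. Pots of standard soil; treatment at day 1 (PRE) or roughly day 12 (POST). Glasshouse: 16 h photoperiod, 65% RH, 24/18 or 20/16 °C by climate type.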
The next experiment relates to Avena fatua (AVEFA). Particulars: Avena fatua. In outline: as §1
In experiment [2] the test system is Alopecurus myosuroides (ALOMY). Particulars: Alopecurus myosuroides. In outline: as §1
The next experiment concerns Lolium perenne (LOLPE). Particulars: Lolium perenne. A digest of the protocol:
as §1

The mark [3] stands for this setting: post-emergence, 360 h, 250 g/ha, post-emergence, 15 DAA, visual assessment (100%=total damage, 0%=no damage), read-out: Post-emergence herbicidal activity (percentage phytotoxicity) ECHCG POST.
The mark [4] stands for this setting: pre-emergence, 480 h, 250 g/ha, pre-emergence, 20 DAA, visual assessment (100%=total damage, 0%=no damage), read-out: Pre-emergence herbicidal activity (percentage phytotoxicity) ECHCG PRE.
[5] abbreviates: post-emergence, 360 h, 250 g/ha, post-emergence, 15 DAA, visual assessment (100%=total damage, 0%=no damage), read-out: Post-emergence herbicidal activity (percentage phytotoxicity) AVEFA POST.
Where [6] appears, read: pre-emergence, 480 h, 250 g/ha, pre-emergence, 20 DAA, visual assessment (100%=total damage, 0%=no damage), read-out: Pre-emergence herbicidal activity (percentage phytotoxicity) AVEFA PRE.
Setting [7] is: post-emergence, 360 h, 250 g/ha, post-emergence, 15 DAA, visual assessment (100%=total damage, 0%=no damage), read-out: Post-emergence herbicidal activity (percentage phytotoxicity) ALOMY POST.
The mark [8] stands for this setting: pre-emergence, 480 h, 250 g/ha, pre-emergence, 20 DAA, visual assessment (100%=total damage, 0%=no damage), read-out: Pre-emergence herbicidal activity (percentage phytotoxicity) ALOMY PRE.
[9] abbreviates: post-emergence, 360 h, 250 g/ha, post-emergence, 15 DAA, visual assessment (100%=total damage, 0%=no damage), read-out: Post-emergence herbicidal activity (percentage phytotoxicity) LOLPE POST.
The mark [10] stands for this setting: pre-emergence, 480 h, 250 g/ha, pre-emergence, 20 DAA, visual assessment (100%=total damage, 0%=no damage), read-out: Pre-emergence herbicidal activity (percentage phytotoxicity) LOLPE PRE.
The mark [11] stands for this setting: post-emergence, 360 h, POST-emergence, rate 250 g/ha, visual score 15 DAA (100%=total damage, 0%=no damage), read-out: Post-emergence herbicidal activity (percentage phytotoxicity) ECHCG POST.
Setting [12] is: pre-emergence, 480 h, PRE-emergence, rate 250 g/ha, visual score 20 DAA (100%=total damage, 0%=no damage), read-out: Pre-emergence herbicidal activity (percentage phytotoxicity) ECHCG PRE.
[13] abbreviates: post-emergence, 360 h, POST-emergence, rate 250 g/ha, visual score 15 DAA (100%=total damage, 0%=no damage), read-out: Post-emergence herbicidal activity (percentage phytotoxicity) AVEFA POST.
The mark [14] stands for this setting: pre-emergence, 480 h, PRE-emergence, rate 250 g/ha, visual score 20 DAA (100%=total damage, 0%=no damage), read-out: Pre-emergence herbicidal activity (percentage phytotoxicity) AVEFA PRE.
Where [15] appears, read: post-emergence, 360 h, POST-emergence, rate 250 g/ha, visual score 15 DAA (100%=total damage, 0%=no damage), read-out: Post-emergence herbicidal activity (percentage phytotoxicity) ALOMY POST.
Setting [16] is: pre-emergence, 480 h, PRE-emergence, rate 250 g/ha, visual score 20 DAA (100%=total damage, 0%=no damage), read-out: Pre-emergence herbicidal activity (percentage phytotoxicity) ALOMY PRE.
[17] abbreviates: post-emergence, 360 h, POST-emergence, rate 250 g/ha, visual score 15 DAA (100%=total damage, 0%=no damage), read-out: Post-emergence herbicidal activity (percentage phytotoxicity) LOLPE POST.
Setting [18] is: pre-emergence, 480 h, PRE-emergence, rate 250 g/ha, visual score 20 DAA (100%=total damage, 0%=no damage), read-out: Pre-emergence herbicidal activity (percentage phytotoxicity) LOLPE PRE.

SMILES strings stand for the structures. Where two headings read alike, the source gives them in different places.

`Cc1cc(Br)cc(C)c1C1C(=O)CC(CC(=O)NC(C)C)C1=O` (stereo not drawn) [Compound B140]: the pest or weed control at 250 g/ha in experiment [1] (setting [3]) came out at 80%; in experiment [1] (setting [4]), 70%; with Avena fatua (AVEFA) (setting [5]) it was 90%; in the experiment on Avena fatua (AVEFA) (setting [6]), 80%; in experiment [2] (setting [7]) it was 90%; in experiment [2] (setting [8]), 90%. The pest or weed control at 250 g/ha with Lolium perenne (LOLPE) (setting [9]) and with Lolium perenne (LOLPE) (setting [10]) was 90% in each case.

On to `CCN(C)C(=O)CC1CC(=O)C(c2c(C)cc(-c3ncc(Cl)cn3)cc2C)C1=O` (stereo not drawn) [Compound B347], for which the pest or weed control at 250 g/ha is 100% in experiment [1] (post-emergence, 360 h, Rate 250 g/ha, post-emergence, visual assessment 15 DAA, 100%=total damage, 0%=no damage, read-out: Post-emergence herbicidal activity (percentage phytotoxicity) ECHCG POST); 100% in experiment [1] (pre-emergence, 480 h, Rate 250 g/ha, pre-emergence, visual assessment 20 DAA, 100%=total damage, 0%=no damage, read-out: Pre-emergence herbicidal activity (percentage phytotoxicity) ECHCG PRE); 100% in the experiment with Avena fatua (AVEFA) (post-emergence, 360 h, Rate 250 g/ha, post-emergence, visual assessment 15 DAA, 100%=total damage, 0%=no damage, read-out: Post-emergence herbicidal activity (percentage phytotoxicity) AVEFA POST); 100% with Avena fatua (AVEFA) (pre-emergence, 480 h, Rate 250 g/ha, pre-emergence, visual assessment 20 DAA, 100%=total damage, 0%=no damage, read-out: Pre-emergence herbicidal activity (percentage phytotoxicity) AVEFA PRE); 100% in experiment [2] (post-emergence, 360 h, Rate 250 g/ha, post-emergence, visual assessment 15 DAA, 100%=total damage, 0%=no damage, read-out: Post-emergence herbicidal activity (percentage phytotoxicity) ALOMY POST); 100% in experiment [2] (pre-emergence, 480 h, Rate 250 g/ha, pre-emergence, visual assessment 20 DAA, 100%=total damage, 0%=no damage, read-out: Pre-emergence herbicidal activity (percentage phytotoxicity) ALOMY PRE). Further, the pest or weed control at 250 g/ha in the experiment on Lolium perenne (LOLPE) (post-emergence, 360 h, Rate 250 g/ha, post-emergence, visual assessment 15 DAA, 100%=total damage, 0%=no damage, read-out: Post-emergence herbicidal activity (percentage phytotoxicity) LOLPE POST) was 100%; in the experiment with Lolium perenne (LOLPE) (pre-emergence, 480 h, Rate 250 g/ha, pre-emergence, visual assessment 20 DAA, 100%=total damage, 0%=no damage, read-out: Pre-emergence herbicidal activity (percentage phytotoxicity) LOLPE PRE) it was 100%.

As to `Cc1cc(C)c(C2C(=O)CC(CC(=O)N3CCSCC3)C2=O)c(C)c1` (stereo not drawn) [Compound A163], the pest or weed control at 250 g/ha in experiment [1] (post-emergence, 360 h, Rate 250 g/ha, post-emergence, assessed visually 15 DAA, 100%=total damage, 0%=no damage, read-out: Post-emergence herbicidal activity (percentage phytotoxicity) ECHCG POST) is 70%; in experiment [1] (pre-emergence, 480 h, Rate 250 g/ha, pre-emergence, assessed visually 20 DAA, 100%=total damage, 0%=no damage, read-out: Pre-emergence herbicidal activity (percentage phytotoxicity) ECHCG PRE), 70%; with Avena fatua (AVEFA) (post-emergence, 360 h, Rate 250 g/ha, post-emergence, assessed visually 15 DAA, 100%=total damage, 0%=no damage, read-out: Post-emergence herbicidal activity (percentage phytotoxicity) AVEFA POST) it was 30%; in the experiment on Avena fatua (AVEFA) (pre-emergence, 480 h, Rate 250 g/ha, pre-emergence, assessed visually 20 DAA, 100%=total damage, 0%=no damage, read-out: Pre-emergence herbicidal activity (percentage phytotoxicity) AVEFA PRE), 30%; in experiment [2] (post-emergence, 360 h, Rate 250 g/ha, post-emergence, assessed visually 15 DAA, 100%=total damage, 0%=no damage, read-out: Post-emergence herbicidal activity (percentage phytotoxicity) ALOMY POST) it was 30%; in experiment [2] (pre-emergence, 480 h, Rate 250 g/ha, pre-emergence, assessed visually 20 DAA, 100%=total damage, 0%=no damage, read-out: Pre-emergence herbicidal activity (percentage phytotoxicity) ALOMY PRE), 10%. The pest or weed control at 250 g/ha in the experiment with Lolium perenne (LOLPE) (post-emergence, 360 h, Rate 250 g/ha, post-emergence, assessed visually 15 DAA, 100%=total damage, 0%=no damage, read-out: Post-emergence herbicidal activity (percentage phytotoxicity) LOLPE POST) stood at 60%; in the experiment on Lolium perenne (LOLPE) (pre-emergence, 480 h, Rate 250 g/ha, pre-emergence, assessed visually 20 DAA, 100%=total damage, 0%=no damage, read-out: Pre-emergence herbicidal activity (percentage phytotoxicity) LOLPE PRE), 60%.

Take `Cc1cc(-c2ncc(C#N)cn2)cc(C)c1C1C(=O)CC(CC(=O)N2CCOCC2)C1=O` (stereo not drawn) [Compound B288]: the pest or weed control at 250 g/ha in experiment [1] (setting [11]) stood at 100%; in experiment [1] (setting [12]) it was 90%; in the experiment with Avena fatua (AVEFA) (setting [13]), 90%; in the experiment with Avena fatua (AVEFA) (setting [14]) it was 80%; in experiment [2] (setting [15]), 100%; in experiment [2] (setting [16]), 80%. Moreover, the pest or weed control at 250 g/ha with Lolium perenne (LOLPE) (setting [17]) and in the experiment on Lolium perenne (LOLPE) (setting [18]) was 90% in each case.

In the case of `CCN(C)C(=O)CC1CC(=O)C(c2c(C)cc(-n3cc(Cl)cn3)cc2C)C1=O` (stereo not drawn) [Compound B228], the pest or weed control at 250 g/ha was determined as 100% in experiment [1] (setting [11]); 90% in experiment [1] (setting [12]); 100% with Avena fatua (AVEFA) (setting [13]); 90% in the experiment with Avena fatua (AVEFA) (setting [14]); 100% in experiment [2] (setting [15]); 100% in experiment [2] (setting [16]). Further, the pest or weed control at 250 g/ha in the experiment on Lolium perenne (LOLPE) (setting [17]) and in the experiment with Lolium perenne (LOLPE) (setting [18]) was 100% throughout.

On to `Cc1cc(OCC(F)(F)F)cc(C)c1C1C(=O)CC(CC(N)=O)C1=O` (stereo not drawn) [Compound B154], for which the pest or weed control at 250 g/ha came to 90% in experiment [1] (setting [3]); 80% in experiment [1] (setting [4]); 70% in the experiment on Avena fatua (AVEFA) (setting [5]); 50% in the experiment with Avena fatua (AVEFA) (setting [6]); 70% in experiment [2] (setting [7]); 90% in experiment [2] (setting [8]). The pest or weed control at 250 g/ha in the experiment on Lolium perenne (LOLPE) (setting [9]) and with Lolium perenne (LOLPE) (setting [10]) was 70% each time.

Turning to `C#CC(C)(C)NC(=O)CC1CC(=O)C(c2c(C)cc(-c3ncc(Cl)cc3F)cc2C)C1=O` (stereo not drawn) [Compound B126], the pest or weed control at 250 g/ha in experiment [1] (setting [3]) came out at 100%; in experiment [1] (setting [4]), 100%; in the experiment on Avena fatua (AVEFA) (setting [5]) it was 100%; with Avena fatua (AVEFA) (setting [6]), 90%; in experiment [2] (setting [7]) it was 100%; in experiment [2] (setting [8]), 100%. Also, the pest or weed control at 250 g/ha with Lolium perenne (LOLPE) (setting [9]) and in the experiment with Lolium perenne (LOLPE) (setting [10]) was 100% in each case.

For the compound `Cc1cc(-c2ncc(F)cn2)cc(C)c1C1C(=O)CC(CC(=O)NCc2ccc(C#N)cc2)C1=O` (stereo not drawn) [Compound B272], the pest or weed control at 250 g/ha in experiment [1] (setting [11]) worked out at 100%; in experiment [1] (setting [12]), 90%; with Avena fatua (AVEFA) (setting [13]), 100%; in the experiment on Avena fatua (AVEFA) (setting [14]), 80%; in experiment [2] (setting [15]) it was 100%; in experiment [2] (setting [16]), 80%. In addition, the pest or weed control at 250 g/ha in the experiment with Lolium perenne (LOLPE) (setting [17]) was 80%; in the experiment with Lolium perenne (LOLPE) (setting [18]), 50%.

In the case of `Cc1cc(-c2ncc(F)cc2F)cc(C)c1C1C(=O)CC(CC(=O)NCc2ccc(F)c(F)c2)C1=O` (stereo not drawn) [Compound B73], the pest or weed control at 250 g/ha in experiment [1] (setting [3]) turned out to be 100%; in experiment [1] (setting [4]), 100%; in the experiment with Avena fatua (AVEFA) (setting [5]), 100%; in the experiment with Avena fatua (AVEFA) (setting [6]) it was 90%; in experiment [2] (setting [7]), 100%; in experiment [2] (setting [8]), 90%. Further, the pest or weed control at 250 g/ha was found to be 100% in the experiment with Lolium perenne (LOLPE) (setting [9]) and 90% in the experiment with Lolium perenne (LOLPE) (setting [10]).
